Experimental data taken from ChEMBL document CHEMBL6134804, “Identifying thiourea-based hybrids of quinazoline and oxospirochromane as inhibitors of Plasmodium cysteine proteases arresting the parasitic growth at the early trophozoite stage” (Bioorg Med Chem Lett, 2025).
Activity calls are given as the source filed them. The calls are words filed in the database; no cut-off is given here.

How the values were obtained:
Plasmodium falciparum [1] = assay: Antiplasmodial activity against sorbitol-synchronized ring stage chloroquine resistant Plasmodium falciparum W2 infected in human erythrocytes assessed as parasitic growth inhibition incubated for 48 to 50 hrs by SYBR Green 1 based microtiter plate spectrofluorimeteric analysis; assay type: functional, organism-based; conditions: W2, Erythrocyte
A549 = assay: Cytotoxicity against human A549 cells assessed as inhibition of cell growth incubated for 24 hrs by MTT assay; assay type: functional, cell-based; conditions: A549, 24 h
[2] = Cytotoxicity against African green monkey Vero cells assessed as reduction in cell viability incubated for 72 hrs by MTT assay; assay type: toxicity, cell-based; conditions: African green monkey (Chlorocebus sabaeus)
Plasmodium falciparum [3] = assay: Antiplasmodial activity against ring-stage Plasmodium falciparum assessed as enlarged feeding vacuoles with hemoglobin accumulation at 3 times IC50 concentration measured after 48 hrs by Giemsa staining based analysis; assay type: functional, organism-based
[4] = Inhibition of Plasmodium falcipain-3 using Z-Leu-Arg-AMC as substrate preincubated for 30 mins followed by substrate addition and measured after 30 mins by microtiter plate spectrofluorimeteric analysis
[5] = Selectivity index, ratio of IC50 for cytotoxicity against human […] cells to antiplasmodial activity against sorbitol-synchronized ring stage chloroquine sensitive Plasmodium falciparum 3D7 infected in human erythrocytes; assay type: cell-based; conditions: read-out: Ratio IC50
[6] = Selectivity index, ratio of IC50 for cytotoxicity against African green monkey Vero cells to antiplasmodial activity against sorbitol-synchronized ring stage chloroquine sensitive Plasmodium falciparum 3D7 infected in human erythrocytes; assay type: toxicity, cell-based; conditions: read-out: Ratio IC50
[7] = Selectivity index, ratio of IC50 for cytotoxicity against human […] cells to antiplasmodial activity against sorbitol-synchronized ring stage chloroquine resistant Plasmodium falciparum W2 infected in human erythrocytes; assay type: cell-based; conditions: read-out: Ratio IC50
Plasmodium falciparum [8] = assay: Antiplasmodial activity against sorbitol-synchronized ring stage chloroquine sensitive Plasmodium falciparum 3D7 infected in human erythrocytes assessed as parasitic growth inhibition incubated for 48 to 50 hrs by SYBR Green 1 based microtiter plate spectrofluorimeteric analysis; assay type: functional, organism-based; conditions: 3D7, Erythrocyte
[9] = Selectivity index, ratio of IC50 for cytotoxicity against African green monkey Vero cells to antiplasmodial activity against sorbitol-synchronized ring stage chloroquine resistant Plasmodium falciparum W2 infected in human erythrocytes; assay type: toxicity, cell-based; conditions: read-out: Ratio IC50
[10] = Hemolytic activity in human Red blood cells assessed as hemolysis at 100 uM incubated for 2 hrs by spectrofluorimetric analysis; assay type: toxicity, cell-based; conditions: erythrocyte
Plasmodium falciparum [11] = assay: Antiplasmodial activity against ring-stage Plasmodium falciparum assessed as reduction in formation of new rings at 3 times IC50 concentration measured after 48 hrs by Giemsa staining based analysis; assay type: functional, organism-based
Plasmodium falciparum [12] = assay: Antiplasmodial activity against ring stage of Plasmodium falciparum assessed as developmental arrest at early trophozoite stage at 3 times IC50 concentration measured after 48 hrs by Giemsa staining based analysis; assay type: functional, organism-based
[13] = Inhibition of Plasmodium falcipain-2 using Z-Leu-Arg-AMC as substrate preincubated for 30 mins followed by substrate addition and measured after 30 mins by microtiter plate spectrofluorimeteric analysis
[14] = Resistance index, ratio of IC50 for antiplasmodial activity against chloroquine sensitive Plasmodium falciparum 3D7 infected in human erythrocytes to antiplasmodial activity against chloroquine resistant Plasmodium falciparum W2 infected in human erythrocytes; assay type: functional
[15] = Inhibition of Plasmodium falciparum ATP4

IC50 [15] | SMILES | IC50 (Plasmodium falciparum [1]) | IC50 (A549) | IC50 at 72 h [2] | Activity (Plasmodium falciparum [3]) | IC50 [4] | selectivity ratio [5] | selectivity ratio [6] | selectivity ratio [7] | IC50 (Plasmodium falciparum [8]) | selectivity ratio [9] | Activity [10] | Activity (Plasmodium falciparum [11]) | Activity (Plasmodium falciparum [12]) | IC50 [13] | Ratio IC50 [14]
 | CCc1nc(N)nc(N)c1-c1ccc(Cl)cc1 [PYRIMETHAMINE] | 0.129 µM |  |  |  |  |  |  |  |  |  |  |  |  |  | 
 | COc1ccccc1NC(=S)N1CCN(c2nc(N3CCC4(CC3)CC(=O)c3ccccc3O4)c3ccccc3n2)CC1 | 5.12 µM | 82.5 µM | > 1000 µM | Active | 6.2 µM | 24.1 | > 292 | 16.1 | 3.42 µM | > 195 | Non-toxic | Active | Active | 5.4 µM | 0.66
 | O=C1CC2(CCN(c3nc(N4CCN(C(=S)Nc5ccc(F)c(Cl)c5)CC4)nc4ccccc34)CC2)Oc2ccccc21 | 3.56 µM | 58.3 µM | > 1000 µM | Active | 4.9 µM | 18.3 | > 314 | 16.4 | 3.18 µM | > 281 | Non-toxic | Active | Active | 3.9 µM | 0.89
 | O=C1CC2(CCN(c3nc(N4CCN(C(=S)Nc5cccc(Cl)c5)CC4)nc4ccccc34)CC2)Oc2ccccc21 | > 15 µM |  |  |  |  |  |  |  | 6.37 µM |  |  |  |  |  | 
0.001 µM | C[C@H]1Cc2c([nH]c3cc(Cl)c(F)cc23)[C@@]2(N1)C(=O)Nc1ccc(Cl)cc12 [CIPARGAMIN] |  |  |  |  |  |  |  |  |  |  |  |  |  |  | 
 | CC(C)C[C@H](NC(=O)[C@@H]1O[C@H]1C(=O)O)C(=O)NCCCCN=C(N)N |  |  |  |  | 0.116 µM |  |  |  |  |  |  |  |  | 0.0544 µM | 
 | O=C1CC2(CCN(c3nc(N4CCN(C(=S)NCc5ccccc5)CC4)nc4ccccc34)CC2)Oc2ccccc21 | 14.4 µM | 214 µM | > 1000 µM |  | 10.8 µM | 44.7 | > 209 | 14.9 | 4.79 µM | > 69.6 |  |  |  | 10.4 µM | 0.33
 | O=C1CC2(CCN(c3nc(N4CCN(C(=S)Nc5ccc(F)cc5F)CC4)nc4ccccc34)CC2)Oc2ccccc21 | > 15 µM |  |  |  |  |  |  |  | 5.28 µM |  |  |  |  |  | 
 | Cc1ccc(NC(=S)N2CCN(c3nc(N4CCC5(CC4)CC(=O)c4ccccc4O5)c4ccccc4n3)CC2)cc1 | > 15 µM |  |  |  |  |  |  |  | 16.1 µM |  |  |  |  |  | 
 | O=C1CC2(CCN(c3nc(N4CCN(C(=S)Nc5ccc(F)cc5)CC4)nc4ccccc34)CC2)Oc2ccccc21 | 8.98 µM | 307 µM | > 1000 µM |  | 14.4 µM | 65.8 | > 215 | 34.1 | 4.66 µM | > 111 |  |  |  | 11.4 µM | 0.52
 | O=C1CC2(CCN(c3nc(N4CCN(C(=S)Nc5ccccc5Cl)CC4)nc4ccccc34)CC2)Oc2ccccc21 | 4.43 µM | 67.2 µM | > 1000 µM | Active | 5.9 µM | 16.9 | > 251 | 15.2 | 3.98 µM | > 226 | Non-toxic | Active | Active | 4.6 µM | 0.9
 | O=C1CC2(CCN(c3nc(N4CCN(C(=S)Nc5ccc(OC(F)(F)F)cc5)CC4)nc4ccccc34)CC2)Oc2ccccc21 | > 15 µM |  |  |  |  |  |  |  | 3.88 µM |  |  |  |  |  | 
 | O=C1CC2(CCN(c3nc(N4CCN(C(=S)Nc5cccc(C(F)(F)F)c5)CC4)nc4ccccc34)CC2)Oc2ccccc21 | > 15 µM |  |  |  |  |  |  |  | 7.97 µM |  |  |  |  |  | 
 | COc1cccc(NC(=S)N2CCN(c3nc(N4CCC5(CC4)CC(=O)c4ccccc4O5)c4ccccc4n3)CC2)c1 | 3.87 µM |  |  |  |  |  |  |  | 5.68 µM |  |  |  |  |  | 1.47
 | O=C1CC2(CCN(c3nc(N4CCN(C(=S)Nc5ccc(Br)cc5)CC4)nc4ccccc34)CC2)Oc2ccccc21 | 4.84 µM |  |  |  |  |  |  |  | 7.29 µM |  |  |  |  |  | 1.51
 | COc1ccc(NC(=S)N2CCN(c3nc(N4CCC5(CC4)CC(=O)c4ccccc4O5)c4ccccc4n3)CC2)cc1 | > 15 µM |  |  |  |  |  |  |  | 23.3 µM |  |  |  |  |  | 
 | O=C1CC2(CCN(c3nc(N4CCN(C(=S)Nc5ccccc5)CC4)nc4ccccc34)CC2)Oc2ccccc21 | > 15 µM |  |  |  |  |  |  |  | 24.7 µM |  |  |  |  |  | 
 | O=C1CC2(CCN(c3nc(N4CCN(C(=S)Nc5ccc(F)c(F)c5)CC4)nc4ccccc34)CC2)Oc2ccccc21 | > 15 µM |  |  |  |  |  |  |  | 17.7 µM |  |  |  |  |  | 
 | Cc1cccc(C)c1NC(=S)N1CCN(c2nc(N3CCC4(CC3)CC(=O)c3ccccc3O4)c3ccccc3n2)CC1 | 7.12 µM | 102 µM | > 1000 µM | Active | 6.4 µM | 21 | > 207 | 14.3 | 4.83 µM | > 140 | Non-toxic | Active | Active | 5.9 µM | 0.68
